Source: patent US9737509B1, “Antimicrobial compositions, methods of use, and methods of treatment of infections” (University of South Florida, priority 2015, dated 2017)
≈ marks a conversion by molar mass, not a printed value.

Assays:
[1] = tested on: L. donovani axenic amastigotes; assay: L. donovani axenic amastigote proliferation, colorimetric assay; type: cell-based, Leishmania donovani; conditions: for activity in the axenic amastigote L. donovani assay (in words): screening / confirmation; for IC50: Leishmania donovani, L. donovani axenic amastigotes
Description: As part of an ongoing search for potential treatments for leishmaniasis, a screening campaign against available compounds was conducted using axenic amastigotes of Leishmania donovani, a protozoan that is known to cause visceral leishmaniasis (VL). […] Prior to taking on the development of novel analogs, we sought to synthesize an analog to confirm that the activity was readily reproducible. […] As a byproduct, compound 2a, which arose from the hydrolysis of the product amide to the corresponding carboxylic acid (not shown) was also isolated and evaluated (vide infra).
(§1) With a source of these compounds in hand, their activity against Leishmania donovani cells was evaluated in two different assays. L. donovani axenic amastigotes were generated from promastigotes and maintained in an appropriate medium such that their proliferation could be evaluated using a colorimetric assay. Additionally, macrophages were plated into a 96-well plate and a medium containing L. donovani was added and allowed to infect the macrophage cells. Subsequent addition of the compound to be evaluated was added to the wells prior to incubation and evaluation. Finally, a counterscreen for cytotoxicity was conducted using a J774 murine mouse cell line.

[2] = tested on: L. donovani infected macrophage cells; assay: L. donovani infected macrophage assay; type: cell-based; conditions: Leishmania donovani, macrophages infected with L. donovani
Description: as §1

[3] = Counterscreen for cytotoxicity; type: cell-based; conditions: mouse, J774 cells (murine macrophage cell line)
Description: as §1

SMILES	IC50 [1] [µg/mL]	activity in the axenic amastigote L. donovani assay (in words) [1]	IC50 [2] [µg/mL]	IC50 [3] [µg/mL]
Cc1nn(-c2ccc(C(N)=O)c(N[C@H]3CC[C@H](O)CC3)c2)c2c1C(=O)CC(C)(C)C2 [Compound 1, reference compound]	–	most active	–	–
COCCCNc1cc(-n2nc(C)c3c2CC(C)(C)CC3=O)ccc1C(N)=O [Compound 2]	0.646 (≈ 1.68 µM)	equally active as 1	0.879 (≈ 2.29 µM)	3.52 (≈ 9.16 µM)
COCCCNc1cc(-n2nc(C)c3c2CN(Cc2ccccc2)CC3=O)ccc1C(N)=O [Compound 3a]	2.29 (≈ 5.11 µM)	–	6.33 (≈ 14.1 µM)	> 50
COCCCNc1cc(-n2nc(C)c3c2CNCC3=O)ccc1C(N)=O [Compound 3b]	3.9 (≈ 10.9 µM)	–	> 10	> 50
COCCCNc1cc(NC2CC(C)(C)Cc3ncccc32)ccc1C(N)=O (centres unmarked) [Compound 6]	2.55 (≈ 6.67 µM)	–	5.38 (≈ 14.1 µM)	6.75 (≈ 17.6 µM)
Cc1nn(-c2ccc3c(N)ncnc3c2)c2c1C(=O)CC(C)(C)C2 [Compound 9c]	2.42 (≈ 7.53 µM)	–	1.33 (≈ 4.15 µM)	> 50
COCCCNc1cc(-n2nc(C)c3c2CCCC3=O)ccc1C(N)=O [Compound 10]	2.65 (≈ 7.45 µM)	–	0.65 (≈ 1.82 µM)	12.6 (≈ 35.2 µM)

Now from value to compound, other results behind:

IC50 [1] [µg/mL]	SMILES	activity in the axenic amastigote L. donovani assay (in words) [1]	IC50 [2] [µg/mL]	IC50 [3] [µg/mL]
13.9 (≈ 34.8 µM)	COCCCNc1cc(-n2nc(C)c3c2CN(C(C)=O)CC3=O)ccc1C(N)=O [Compound 3c]	–	1.06 (≈ 2.65 µM)	> 50
6.42 (≈ 15.5 µM)	CCC(=O)N1CC(=O)c2c(C)nn(-c3ccc(C(N)=O)c(NCCCOC)c3)c2C1 [Compound 3d]	–	3.54 (≈ 8.55 µM)	> 50
1.9 (≈ 4.45 µM)	COCCCNc1cc(-n2nc(C)c3c2CN(C(=O)C(C)C)CC3=O)ccc1C(N)=O [Compound 3e]	–	3.54 (≈ 8.28 µM)	37.3 (≈ 87.3 µM)
4.45 (≈ 10.4 µM)	COCCCNc1cc(-n2nc(C)c3c2CN(C(=O)COC)CC3=O)ccc1C(N)=O [Compound 3f]	–	3.57 (≈ 8.31 µM)	> 50
2.99 (≈ 6.59 µM)	COCCCNc1cc(-n2nc(C)c3c2CN(C(=O)C2CCCC2)CC3=O)ccc1C(N)=O [Compound 3g]	–	1.52 (≈ 3.36 µM)	> 50
2.6 (≈ 5.48 µM)	COCCCNc1cc(-n2nc(C)c3c2CN(C(=O)c2ccc(C)cc2)CC3=O)ccc1C(N)=O [Compound 3h]	–	1.75 (≈ 3.69 µM)	26.3 (≈ 55.3 µM)
> 20	COCCCNc1cc(-n2nc(C)c3c2CN(S(C)(=O)=O)CC3=O)ccc1C(N)=O [Compound 3i]	–	> 5.38	25.5 (≈ 58.6 µM)
> 20	COCCCNc1cc(-n2nc(C)c3c2CN(C(=O)NCc2ccccc2)CC3=O)ccc1C(N)=O [Compound 3j]	–	> 10	> 50
> 20	COCCCNc1cc(-n2nc(C)c3c2CN(C(N)=O)CC3=O)ccc1C(N)=O [Compound 3k]	–	> 10	> 50
